From US6391304B1, “Peptides derived from the ENV gene of the feline immunodeficiency virus and their applications” (Centre National de la Recherche Scientifique, priority 1997, dated 2002)
“And” between values parts separate entries of the source, which are not always exact repeats. Identical values can stand only once. “Also recorded” adds a separate entry of the source.

Tests used:
TM2 envelope peptide = assay: Seroconversion ELISA after the virulence test, TM2 peptide; assay type: in vivo, cats
Description: (§1) The cats are subjected to a virulence test, one week after the final immunization, by means of an intraperitoneal inoculation of 10 CID50 of FIV Wo isolate, one CID50 corresponding to the dose capable of infecting 50% of the cats.
(§2) The production on of antibodies is evaluated before the test by means of an ELISA using an immobilized peptide (SU2, SU5, TM2 or TM3-19) and immunoprecipitation. After the test, the seroconversion is monitored by an ELISA using immobilized envelope peptides and a recombinant FTV capsid protein.
(§3) The ELISA with the immobilized envelope peptides corresponding to the immunogenic domains SU2 and TM2 and with the immobilized recombinant p25 protein (FIV capsid protein) is carried out as described in Avraméas A. et al. (Res. Virol., 1993, 144, 209-218).
(§4) Microplates (Immunolon II, Dynatech) are coated with 0.5 μg/well for the peptides and with 0.1 μg/well for the p25 protein.
(§5) The tests are carried out in duplicate and the results are expressed as average values.
(§6) After the test, the seroconversion against the envelope peptides and the p25 protein is evaluated at serum dilutions of 1/25 and 1/100, respectively.
(§7) The absorbance values (at 405 nm) are corrected by subtraction of the absorbance values obtained by binding with an immobilized control peptide.
(§8) The tests are normalized with reference to the binding of a mixture of serum from cats infected with FIV with a peptide representing the immunodominant domain of the FIV transmembrane glycoprotein (TM2) (Avraméas A. et al., Res. Virol., 1993, 144, 209-218).

[1] = system: p25 recombinant FIV capsid protein; assay: Seroconversion ELISA after the virulence test, p25; assay type: in vivo, cats; details: ELISA, seral dilution 1/100; individual cats
Description: as §1, §2, §3, §4, §5, §6, §7, §8

CD4+ T lymphocytes = assay: Counting of circulating CD4+ T lymphocytes by flow cytometry; assay type: in vivo, cats; details: acute infection with FIV Wo, FIG. 2
Description: Counting of the CD4^+ T lymphocytes is carried out at regular intervals before the test, on the day of the test and at regular intervals during the acute infection.
The CD4^+ T lymphocytes are counted by flow cytometry, using monoclonal antibodies (Clinisciences).
To evaluate the effect of the immunization on the pathology associated with a primary infection, circulating CD4^+ lymphocytes are counted before and after the test with the FIV Wo strain.

[2] = system: envelope glycoproteins of the Petaluma strain; assay: Immunoprecipitation of envelope glycoproteins by sera (metabolically labelled FL-4 cells); assay type: in vivo, FIV; details: lysates of chronically infected FL-4 cells; groups of four cats
Excerpt: The sera collected on the day of the test (at a dilution of 1/40) are used to immunoprecipitate the envelope glycoproteins derived from the metabolically labelled FL-4 cells and feline mononuclear cells (PBM cells) infected with the FIV Wo strain, as described in G. Pancino et al. (Virology, 1995, 206, 796-806).
The recognition of the envelope glycoproteins is estimated by immunoprecipitation of the biosynthetically labelled envelope glycoprotein with sera collected on the day of the test, as summarized in Table I.

FIV Wo isolate = assay: Plasmatic viral load by competitive RT-PCR after the virulence test; assay type: in vivo, cats; details: after test with 10 CID50 of Wo isolate, relative to control cats, FIG. 3
Description: (§9) Groups of four cats 4½ months old are immunized subcutaneously with 120 μg of FIV peptide (approximately 250 μg of peptide coupled to KLH (keyhole limpet haemocyanin)), emulsified in complete Freund's adjuvant.
(§10) Four repeat immunizations are administered subcutaneously in an incomplete Freund's adjuvant, generally at intervals of 2-3 weeks, although the interval between the last 2 […] was 7 weeks.
as §1
The plasma is filtered (0.45 μm) and the RNA not associated with cells is extracted directly from the filtered plasma using the Viral RNA kit (Qiagene) and eluted in 50 μl of water according to the manufacturer's instructions, and the RNA is then divided into aliquots and stored at −80° C.
A conserved region of the FIV gag gene is selected as a target sequence for the reverse transcription of the competitive RNA and the overlapping PCR amplification.
For the synthesis of the cDNA, 2.5 μl of viral RNA are mixed with 2.5 μl containing different numbers of copies of competitive RNA; typically, the various samples of competitive RNA are prepared using 5 semi-logarithmic dilutions, straddling the number of copies estimated in the biological sample.
The RNA is denatured at 65° C. for 5 minutes and immediately placed on ice. The reagents for the reverse transcription (15 μl) are added.
The final reaction mixtures contain 0.3 U/ml of random hexanucleotides (sequences of 6 randomly aligned nucleotides which make it possible theoretically to amplify any RNA fragment) (Pharmcia), 0.5 mM of dNTP, 10 mM of DTT, 1× of commercial buffer (Gibco BRL) and 100 U of Superscript II (Glbco BRL), in a volume of 20 μl.
The reactions are first carried out at 25° C. for 10 minutes to promote the hybridization of the primers, and then at 42° C. for 50 minutes. The reverse transcriptase is inactivated by incubation at 95° C. for 5 minutes.
The highly conserved sequences are selected as primers. The complementary DNA is amplified by overlapping PCR, using:
For the first amplification, the PCR reagents (80 μl) are added as a mixture with 20 μl of cDNA.
The DNA is denatured at 94° C. for 3 minutes, subjected to 28 cycles of amplification (94° C. 30 s/55° C. 30 s/72° C. 30 s) and to an elongation at 72° C. for 7 minutes.
For the overlapping amplification, 2 μl of the product of the first amplification is transferred into 98 μl of reaction mixture containing 200 μM of dNTP, 1.5 mM of MgCl2, 0.5 μM of each internal primer, 1× of commercial buffer (Gibco BRL) and 0.25 U of Taq polymerase (Gibco BRL).
The DNA is denatured at 94° C. for 3 minutes, subjected to 28 cycles of amplification (94° C. 30 s/52° C. 30 s/72° C. 30 s) and to an elongation at 72° C. for 7 minutes.
The amplification products (10 μl ) are subjected to electrophoresis on 2.75% agarose gel.
Digital images of the gels stained with ethidium bromide are obtained using the Appligene Imager and the densitometry analyses are carried out with the Image NIH software. The density of the competitive product is adjusted as a function of the difference between the length of the native sequence and that of the competitive sequence.
The logarithm of the ratio:density or competitive product/density of the native product, is plotted as a function of the logarithm of the number of copies of competitive RNA added to each reaction.
The best adjustment is determined by the least-squares method and the number of copies of native RNA corresponds to the intersection of the axis of the Xs (Piatak M. Jr. et al., Biotechniques, 1993, 14, 70-80).
The cumulative area under the curve (Dawson J., Drug Information J., 1994, 28, 723-732) is calculated from graphs illustrating the ratio: copies of viral RNA/ml of plasma/time, and compared with the Mann-Whitney test.

[3] = system: immobilized peptide (SU2, SU5, TM2 or TM3-19); assay: ELISA anti-peptide titre during the immunization of cats; assay type: in vivo; details: individual cats immunized with KLH-coupled peptide; absorbance at 405 nm greater than 0.1
Description: as §9, §10, §2, §3, §4, §5
The anti-peptide titres before the test are expressed as the logarithm of the inverse of the last dilution of serum which gives an absorbance (at 405 nm) of greater than 0.1.

SU2 envelope peptide = assay: Seroconversion ELISA after the virulence test, SU2 peptide; assay type: in vivo, cats; details: ELISA, seral dilution 1/25; individual cats
Description: as §1, §2, §3, §4, §5, §6, §7, §8

FIV Petaluma strain = assay: Neutralization of infection of CrFK cells by sera of immunized cats; assay type: cell-based; details: CrFK cell line
Description: The detection of antibodies neutralizing the infection of the CrFKs with the FIV Petaluma strain is carried out as described previously (Richardson J. et al., J. Gen. Virol., 1996, 77, 759-771).
To evaluate the function of the antibodies, the feline sera directed against the SU2 peptide are tested for their neutralizing value with respect to the infection of CrFK cells with the FIV Petaluma strain.

[4] = ELISA, seral dilution 1/25, individual cats

Substance: SU5: peptide of the SU5 domain of the FIV surface envelope glycoprotein, SEQ ID NO: 3, used as immunogen (QVVKQPDYLVVPGEVMEYKPRR)
- Binding of the sera to TM2, 3 weeks after the virulence test (TM2 envelope peptide; [4]): 2.3 optical density and 0 optical density (2×) and 0.1 optical density
- Binding of the sera to TM2, 4 weeks after the virulence test (TM2 envelope peptide; [4]): 2.9 optical density and 2.8 optical density and 2.4 optical density and 0 optical density
- Binding of the sera to TM2, 5 weeks after the virulence test (TM2 envelope peptide; [4]): 3.0 optical density and 3.1 optical density and 2.8 optical density and 0 optical density
- response against the TM2 peptide (TM2 envelope peptide; at 4 weeks after the test): developed a large response
- Binding of the sera to p25, 3 weeks after the virulence test [1]: 0.1 optical density and 0 optical density (3×)
- Binding of the sera to p25, 4 weeks after the virulence test [1]: 2.7 optical density and 1.0 optical density and 0.2 optical density and 0 optical density
- Binding of the sera to p25, 5 weeks after the virulence test [1]: 2.9 optical density and 2.2 optical density and 0.8 optical density and 0 optical density
- number of CD4+ lymphocytes after the infection (CD4+ T lymphocytes): gradual reduction
- cats whose sera immunoprecipitate the envelope glycoproteins of the Petaluma strain [2]: all the cats
- course of the primary infection (viral RNA in plasma, viral dissemination) (FIV Wo isolate): the acute infection of 3 cats followed kinetics similar to those of the control cats, while infection in one of the cats appears in a retarded manner; also recorded: do not modify the course of the infection
- Anti-peptide titre, 1st injection [3]: 5.01 logarithm of the inverse of the last dilution of serum and 5.31 logarithm of the inverse of the last dilution of serum and 4.71 logarithm of the inverse of the last dilution of serum and >5.61 logarithm of the inverse of the last dilution of serum
- Anti-peptide titre, 2nd injection [3]: 5.31 logarithm of the inverse of the last dilution of serum (3×) and 5.01 logarithm of the inverse of the last dilution of serum
- Anti-peptide titre, Day of the test [3]: 4.71 logarithm of the inverse of the last dilution of serum and 5.01 logarithm of the inverse of the last dilution of serum (3×)
- Binding of the sera to SU2, 3 weeks after the virulence test (SU2 envelope peptide): 0 optical density
- Binding of the sera to SU2, 4 weeks after the virulence test (SU2 envelope peptide): 1.9 optical density and 0.5 optical density and 0 optical density (2×)
- Binding of the sera to SU2, 5 weeks after the virulence test (SU2 envelope peptide): 2.4 optical density and 0.7 optical density and 0.1 optical density and 0 optical density
- neutralizing antibodies in sera of immunized cats (FIV Petaluma strain): do not neutralize
